Data set [1] deals with Hepatotoxicity. In words: Literature-mined compound from Fourches et al multi-species drug-induced liver injury (DILI) dataset, effect in non-rodents.
The test system of data set [2] is Hepatotoxicity. In words: Literature-mined compound from Fourches et al multi-species drug-induced liver injury (DILI) dataset, effect in humans. The settings on record: human.
For data set [3], the system named is Hepatotoxicity. As to the kind of experiment: Literature-mined compound from Fourches et al multi-species drug-induced liver injury (DILI) dataset, effect in rodents. The settings on record: rodentia.

The values below come from ChEMBL document CHEMBL1697731, “Cheminformatics analysis of assertions mined from literature that describe drug-induced liver injury in different species” (Chem Res Toxicol, 2010).

Molecules are shown by their SMILES.

Take `O=C(NCCO[N+](=O)[O-])c1cccnc1` [NICORANDIL]: the Hepatotoxicity result was “no drug-induced liver injury reported” in the data set on Hepatotoxicity [1], “no drug-induced liver injury reported” in the data set with Hepatotoxicity [2] and “drug-induced liver injury reported” with Hepatotoxicity [3].
As to `CN1CCC[C@H]1c1cccnc1` [NICOTINE], the Hepatotoxicity entry is given as “no drug-induced liver injury reported” in the data set on Hepatotoxicity [1] (Liver), “drug-induced liver injury reported” in the data set on Hepatotoxicity [2] (Liver) and “drug-induced liver injury reported” in the data set with Hepatotoxicity [3] (Liver).
Turning to `COC(=O)C1=C(C)NC(C)=C(C(=O)OC)C1c1ccccc1[N+](=O)[O-]` [NIFEDIPINE], the Hepatotoxicity result with Hepatotoxicity [1], in the data set on Hepatotoxicity [2] and in the data set on Hepatotoxicity [3] was “drug-induced liver injury reported” throughout.
`O=C(O)c1cccnc1Nc1cccc(C(F)(F)F)c1` [NIFLUMIC ACID]: the figures for the Hepatotoxicity result in the data set on Hepatotoxicity [1], in the data set with Hepatotoxicity [2] and in the data set on Hepatotoxicity [3] were “no drug-induced liver injury reported”, “no drug-induced liver injury reported” and “drug-induced liver injury reported”, respectively.
As to `CC1CS(=O)(=O)CCN1/N=C/c1ccc([N+](=O)[O-])o1` (stereo unspecified) [NIFURTIMOX], the Hepatotoxicity result is reported as “no drug-induced liver injury reported” in the data set with Hepatotoxicity [1] (Liver), “no drug-induced liver injury reported” in the data set on Hepatotoxicity [2] (Liver) and “drug-induced liver injury reported” in the data set with Hepatotoxicity [3] (Liver).
For `O=C1CN(/N=C/c2ccc([N+](=O)[O-])o2)C(=O)N1CO` [NIFURTOINOL], the Hepatotoxicity result in the data set with Hepatotoxicity [1] is reported as “no drug-induced liver injury reported”; in the data set with Hepatotoxicity [2], “drug-induced liver injury reported”; in the data set with Hepatotoxicity [3], “no drug-induced liver injury reported”.
In the case of `CC1(C)NC(=O)N(c2ccc([N+](=O)[O-])c(C(F)(F)F)c2)C1=O` [NILUTAMIDE], the Hepatotoxicity result is recorded as “no drug-induced liver injury reported” in the data set with Hepatotoxicity [1] (Liver), “drug-induced liver injury reported” with Hepatotoxicity [2] (Liver) and “drug-induced liver injury reported” in the data set on Hepatotoxicity [3] (Liver).
Take `COCCOC(=O)C1=C(C)NC(C)=C(C(=O)OC(C)C)C1c1cccc([N+](=O)[O-])c1` (stereo unspecified) [NIMODIPINE]: the Hepatotoxicity result in the data set with Hepatotoxicity [1] was “no drug-induced liver injury reported”; in the data set with Hepatotoxicity [2], “drug-induced liver injury reported”; in the data set on Hepatotoxicity [3], “drug-induced liver injury reported”.
Turning to `O=C1NCCN1c1ncc([N+](=O)[O-])s1` [NIRIDAZOLE], the values for the Hepatotoxicity result in the data set with Hepatotoxicity [1], in the data set with Hepatotoxicity [2] and in the data set on Hepatotoxicity [3] were “no drug-induced liver injury reported”, “no drug-induced liver injury reported” and “drug-induced liver injury reported”, respectively.
As for `COC(=O)C1=C(C)NC(C)=C(C(=O)OCC(C)C)C1c1ccccc1[N+](=O)[O-]` (stereo unspecified) [NISOLDIPINE], the Hepatotoxicity result in the data set on Hepatotoxicity [1], with Hepatotoxicity [2] and in the data set with Hepatotoxicity [3] was “drug-induced liver injury reported” each time.
In the case of `O=C1CCCC(=O)C1C(=O)c1ccc(C(F)(F)F)cc1[N+](=O)[O-]` [NITISINONE], the Hepatotoxicity entry is recorded as “drug-induced liver injury reported” with Hepatotoxicity [1], “no drug-induced liver injury reported” in the data set on Hepatotoxicity [2] and “drug-induced liver injury reported” in the data set on Hepatotoxicity [3].
With `O=C1CN=C(c2ccccc2)c2cc([N+](=O)[O-])ccc2N1` [NITRAZEPAM], the figures for the Hepatotoxicity result in the data set with Hepatotoxicity [1], with Hepatotoxicity [2] and in the data set on Hepatotoxicity [3] were “no drug-induced liver injury reported”, “no drug-induced liver injury reported” and “drug-induced liver injury reported”, respectively.
For the compound `CCOC(=O)C1=C(C)NC(C)=C(C(=O)OC)C1c1cccc([N+](=O)[O-])c1` (stereo unspecified) [NITRENDIPINE], the results for the Hepatotoxicity entry in the data set with Hepatotoxicity [1], in the data set with Hepatotoxicity [2] and in the data set on Hepatotoxicity [3] were “no drug-induced liver injury reported”, “drug-induced liver injury reported” and “drug-induced liver injury reported”, respectively.
In the case of `O=C1CN(/N=C/c2ccc([N+](=O)[O-])o2)C(=O)N1` [NITROFURANTOIN], the Hepatotoxicity entry with Hepatotoxicity [1] (Liver), in the data set on Hepatotoxicity [2] (Liver) and in the data set with Hepatotoxicity [3] (Liver) was “drug-induced liver injury reported” each time.
Regarding `NC(=O)N/N=C/c1ccc([N+](=O)[O-])o1` [NITROFURAZONE], the Hepatotoxicity entry is “no drug-induced liver injury reported” in the data set with Hepatotoxicity [1], “no drug-induced liver injury reported” in the data set on Hepatotoxicity [2] and “drug-induced liver injury reported” with Hepatotoxicity [3].
Consider `O=[N+]([O-])OCC(CO[N+](=O)[O-])O[N+](=O)[O-]` [NITROGLYCERIN], for which the Hepatotoxicity result in the data set on Hepatotoxicity [1] is recorded as “no drug-induced liver injury reported”; in the data set on Hepatotoxicity [2], “drug-induced liver injury reported”; with Hepatotoxicity [3], “drug-induced liver injury reported”.
For the compound `CNC(=C[N+](=O)[O-])NCCSCc1csc(CN(C)C)n1` [NIZATIDINE], the Hepatotoxicity result in the data set on Hepatotoxicity [1] is “no drug-induced liver injury reported”; in the data set with Hepatotoxicity [2] it was “drug-induced liver injury reported”; in the data set on Hepatotoxicity [3], “drug-induced liver injury reported”.
`CC(Cc1ccc(O)c(O)c1)C(C)Cc1ccc(O)c(O)c1` (stereo unspecified) [NORDIHYDROGUAIARETIC ACID]: the Hepatotoxicity result in the data set on Hepatotoxicity [1] is given as “no drug-induced liver injury reported”; in the data set with Hepatotoxicity [2], “drug-induced liver injury reported”; with Hepatotoxicity [3], “drug-induced liver injury reported”.
For the compound `NC[C@H](O)c1ccc(O)c(O)c1` [NOREPINEPHRINE], the Hepatotoxicity entry with Hepatotoxicity [1], in the data set with Hepatotoxicity [2] and with Hepatotoxicity [3] was “drug-induced liver injury reported” in each case.
Consider `C#C[C@]1(OC(C)=O)CC[C@H]2[C@@H]3CCC4=CC(=O)CC[C@@H]4[C@H]3CC[C@@]21C` [NORETHINDRONE ACETATE], for which the Hepatotoxicity result in the data set with Hepatotoxicity [1] is reported as “drug-induced liver injury reported”; in the data set with Hepatotoxicity [2], “no drug-induced liver injury reported”; in the data set with Hepatotoxicity [3], “drug-induced liver injury reported”.
As to `CCn1cc(C(=O)O)c(=O)c2cc(F)c(N3CCNCC3)cc21` [NORFLOXACIN], the Hepatotoxicity result is on record as “no drug-induced liver injury reported” in the data set with Hepatotoxicity [1] (Liver), “drug-induced liver injury reported” in the data set on Hepatotoxicity [2] (Liver) and “drug-induced liver injury reported” in the data set on Hepatotoxicity [3] (Liver).
For `C#CC1(O)CC[C@H]2[C@@H]3CCC4=CC(=O)CC[C@@H]4[C@H]3CC[C@@]21CC` (stereo partly specified) [NORGESTREL], the Hepatotoxicity result in the data set on Hepatotoxicity [1] (Liver) is on record as “no drug-induced liver injury reported”; in the data set on Hepatotoxicity [2] (Liver), “drug-induced liver injury reported”; in the data set with Hepatotoxicity [3] (Liver) it was “drug-induced liver injury reported”.
In the case of `CNCCC=C1c2ccccc2CCc2ccccc21` [NORTRIPTYLINE], the values for the Hepatotoxicity result with Hepatotoxicity [1] (Liver), in the data set on Hepatotoxicity [2] (Liver) and with Hepatotoxicity [3] (Liver) were “no drug-induced liver injury reported”, “drug-induced liver injury reported” and “no drug-induced liver injury reported”, respectively.
On to `COc1ccc2c(c1OC)C(=O)O[C@@H]2[C@H]1c2c(cc3c(c2OC)OCO3)CCN1C` [NOSCAPINE], for which the results for the Hepatotoxicity entry with Hepatotoxicity [1], with Hepatotoxicity [2] and in the data set on Hepatotoxicity [3] were “no drug-induced liver injury reported”, “no drug-induced liver injury reported” and “drug-induced liver injury reported”, respectively.
Consider `CO[C@@H]1[C@@H](OC(N)=O)[C@@H](O)[C@H](Oc2ccc3c(O)c(NC(=O)c4ccc(O)c(CC=C(C)C)c4)c(=O)oc3c2C)OC1(C)C` [NOVOBIOCIN], for which the values for the Hepatotoxicity result in the data set on Hepatotoxicity [1], in the data set with Hepatotoxicity [2] and in the data set on Hepatotoxicity [3] were “no drug-induced liver injury reported”, “drug-induced liver injury reported” and “drug-induced liver injury reported”, respectively.
For `CO[C@@H]1[C@H](OC(=O)NC(=O)CCl)CC[C@]2(CO2)[C@H]1[C@@]1(C)O[C@@H]1CC=C(C)C` [O-CHLOROACETYLCARBAMOYLFUMAGILLOL], the Hepatotoxicity result in the data set on Hepatotoxicity [1] is on record as “drug-induced liver injury reported”; with Hepatotoxicity [2] it was “no drug-induced liver injury reported”; in the data set on Hepatotoxicity [3], “drug-induced liver injury reported”.
As to `Cc1cc2c(s1)Nc1ccccc1N=C2N1CCN(C)CC1` [OLANZAPINE], the Hepatotoxicity entry with Hepatotoxicity [1] is “no drug-induced liver injury reported”; in the data set with Hepatotoxicity [2] it was “drug-induced liver injury reported”; with Hepatotoxicity [3] it was “no drug-induced liver injury reported”.
As to `CCCCCCCC/C=C\CCCCCCCC(=O)O` [OLEIC ACID], the Hepatotoxicity entry in the data set with Hepatotoxicity [1] is “no drug-induced liver injury reported”; with Hepatotoxicity [2], “no drug-induced liver injury reported”; with Hepatotoxicity [3], “drug-induced liver injury reported”.
As to `CCCc1nc(C(C)(C)O)c(C(=O)OCc2oc(=O)oc2C)n1Cc1ccc(-c2ccccc2-c2nnn[nH]2)cc1` [OLMESARTAN MEDOXOMIL], the Hepatotoxicity result is reported as “no drug-induced liver injury reported” with Hepatotoxicity [1], “no drug-induced liver injury reported” in the data set with Hepatotoxicity [2] and “drug-induced liver injury reported” with Hepatotoxicity [3].
Consider `COC(=O)C[C@](O)(CCCC(C)(C)O)C(=O)O[C@@H]1C(OC)=C[C@]23CCCN2CCc2cc4c(cc2[C@H]13)OCO4` [OMACETAXINE MEPESUCCINATE], for which the values for the Hepatotoxicity entry in the data set with Hepatotoxicity [1], with Hepatotoxicity [2] and in the data set with Hepatotoxicity [3] were “no drug-induced liver injury reported”, “drug-induced liver injury reported” and “no drug-induced liver injury reported”, respectively.
Take `COc1ccc2[nH]c([S+]([O-])Cc3ncc(C)c(OC)c3C)nc2c1` (stereo unspecified) [OMEPRAZOLE]: the Hepatotoxicity result is “no drug-induced liver injury reported” in the data set with Hepatotoxicity [1], “drug-induced liver injury reported” with Hepatotoxicity [2] and “drug-induced liver injury reported” in the data set on Hepatotoxicity [3].
For the compound `Cc1nccn1CC1CCc2c(c3ccccc3n2C)C1=O` (stereo unspecified) [ONDANSETRON], the Hepatotoxicity result in the data set with Hepatotoxicity [1] is given as “no drug-induced liver injury reported”; in the data set with Hepatotoxicity [2], “drug-induced liver injury reported”; with Hepatotoxicity [3], “no drug-induced liver injury reported”.
